Results taken from patent US20230278972A1, “SUBSTITUTED HALOALKYL SULFONANILIDE HERBICIDES” (FMC Corporation, priority 2020, published 2023).

What was measured:
Assay type in all cases: in vivo
kochia (Bassia scoparia) = assay: Test A1 preemergence, kochia
Procedure, shortened: (§1)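 Seeds were first planted into a blend of loam soil and sand and given a preemergence directed soil spray. In parallel, pots of the same soil were sown for postemergence application once plants reached 2 to 10 cm and the one- to two-leaf stage. Both used surfactant-containing non-phytotoxic solvent formulations.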

[1] = system: ragweed (common ragweed, Ambrosia artemisiifolia); assay: Test A1 postemergence, ragweed; conditions: for Plant response rating, Ragweed: Postemergence; for Ragweed plant response rating: postemergence
Procedure, shortened: as §1

[2] = system: Foxtail, Giant (giant foxtail, Setaria faberi); assay: Test A1 postemergence, Foxtail, Giant; conditions: for Plant response rating, Foxtail, Giant: Postemergence; for Foxtail, Giant plant response rating: postemergence
Procedure, shortened: (§2)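 Plants were grown in a loam soil/sand blend, with test chemicals formulated in a non-phytotoxic solvent mixture containing surfactant. Preemergence treatment (corn) was a directed soil spray at planting. Postemergence treatment was applied to plants 2 to 10 cm tall at the one- to two-leaf stage.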

[3] = system: blackgrass (Alopecurus myosuroides); assay: Test A1 postemergence, blackgrass; conditions: Postemergence, 0 to 100 scale (0 no effect, 100 complete control)
Procedure, shortened: as §2

[4] = system: goosegrass (Eleusine indica); assay: Test A1 postemergence, goosegrass; conditions: for Plant response rating, Goosegrass: Postemergence; for Goosegrass plant response rating: postemergence
Procedure, shortened: as §2

[5] = system: Pigweed, Palmer (palmer amaranth, palmer pigweed, Amaranthus palmeri); assay: Test A1 preemergence, Pigweed, Palmer
Procedure, shortened: as §1

[6] = system: Ryegrass, Italian (Italian ryegrass, Lolium multiflorum); assay: Test A1 preemergence, Ryegrass, Italian
Procedure, shortened: as §1

[7] = system: Ryegrass, Italian (Italian ryegrass, Lolium multiflorum); assay: Test A1 postemergence, Ryegrass, Italian; conditions: for Plant response rating, Ryegrass, Italian: Postemergence; for Ryegrass, Italian plant response rating: postemergence
Procedure, shortened: as §2

[8] = 31 g ai/ha, 0 to 100 scale (0 no effect, 100 complete control)
[9] = 125 g ai/ha, 0 to 100 scale, 0 no effect, 100 complete control
[10] = 31 g ai/ha, 0 to 100 scale (0 no effect, 100 complete control), 10 days

Compound	Plant response rating, Kochia (kochia (Bassia scoparia); [8])	Plant response rating, Kochia (kochia (Bassia scoparia); [9])	Plant response rating, Ragweed [1, 10]	Plant response rating, Ragweed ([1]; 125 g ai/ha, 0 to 100 scale)	Plant response rating, Foxtail, Giant [2, 10]	Plant response rating, Foxtail, Giant ([2]; 125 g ai/ha, 0 to 100 scale)	Plant response rating, Blackgrass ([3]; 31 g ai/ha, 10 days)	Plant response rating, Blackgrass ([3]; 125 g ai/ha)	Plant response rating, Goosegrass [4, 10]	Plant response rating, Goosegrass ([4]; 125 g ai/ha, 0 to 100 scale)	Plant response rating, Pigweed, Palmer [5, 8]	Plant response rating, Pigweed, Palmer [5, 9]	Plant response rating, Ryegrass, Italian [6, 8]	Plant response rating, Ryegrass, Italian [6, 9]	Plant response rating, Ryegrass, Italian [7, 10]	Plant response rating, Ryegrass, Italian ([7]; 125 g ai/ha, 0 to 100 scale)	Ragweed plant response rating [1, 8]	Foxtail, Giant plant response rating [2, 8]	Goosegrass plant response rating [4, 8]	Ryegrass, Italian plant response rating [7, 8]
Cc1cc(C)c(C2=NOC3COCC23)cc1NS(=O)(=O)C(F)(F)F (stereo not shown) [Compound 297]	80	90	30	70	10	60	0	0	0	70	30	90	0	90	0	60				
Cc1cc(C)c(C2=NOC3(C)CCCC23)cc1NS(=O)(=O)C(F)(F)F (stereo not shown) [Compound 340]		60	70	80	10	50	0	20	60	90	60	100	50	100	0	20				
Cc1c(C2=NO[C@@H]3CCC[C@H]23)cc(N(COC(=O)C(C)(C)C)S(=O)(=O)C(F)(F)F)c(C)c1C [Compound 336, [[(Trifluoromethyl)sulfonyl][2,3,4-trimethyl-5-[(3aR,6aR)-3a,5,6,6a-tetrahydro-4H-cyclopent[d]isoxazol-3-yl]phenyl]amino]methyl 2,2-dimethylpropanoate]	0	0	50	80	0	40	0	0	0	0	60	100	30	30	0	0				
Cc1c(NS(=O)(=O)C(F)(F)F)cc(C(=O)N2CC(C)OC(C)C2)c(C)c1C (stereo not shown) [Compound 327]	0	70	70	90	30	90	0	0	20	70	90	90	40	50	0	30				
C#CCN(C)C(=O)c1cc(NS(=O)(=O)C(F)(F)F)c(C)c(C)c1C [Compound 368]	20	90		80		90	0	10		90	100	100	50	100		90	50	80	30	20
CCOC(=O)N(c1cc(C(=O)N2CCC(F)(F)CC2)c(C)cc1C)S(=O)(=O)C(F)(F)F [Compound 351]	20	90	70	90	30	50	0	80	40	90	80	90	40	90	20	50				
Cc1cc(C2CC2)c(NS(=O)(=O)C(F)(F)F)cc1C1=NOC2(CCCC2)C1 [Compound 313]	0	0	0	0	0	0	0	0	0	0	0	20	30	50	0	0				
Cc1cc(C)c(N(COC(=O)C(C)(C)C)S(=O)(=O)C(F)(F)F)cc1C1=NOC2(C)CCCC12 (stereo not shown) [Compound 341]	0	40	60	80	0	20	0	0	0	60	0	20	0	40	0	0				
COC1CCN(C(=O)c2cc(N(COC(=O)C(C)(C)C)S(=O)(=O)C(F)(F)F)c(C)c(C)c2C)CC1 [Compound 370]	0	20		70		80	0	0		60	30	70	30	30		0	50	10	0	0
Cc1c(NS(=O)(=O)C(F)(F)F)cc(C(=O)N2CCCCC2)c(C)c1C [Compound 326]	80	80	60	80	10	30	0	0	0	80	90	100	20	70	0	30				
COc1cnn(-c2cc(NS(=O)(=O)C(F)(F)F)c(C)cc2C)c(=O)c1OC [Compound 282]	0	80	60	70	0	20	0	20	20	80	0	80	0	40	30	60				
Cc1c(C(=O)N(C)C)cc(NS(=O)(=O)C(F)(F)F)c(Cl)c1F [Compound 320]	20	50	40	80	0	40	40	0	40	0	50	100	90	90	0	40				
Cc1c(C(=O)N2CCC(C)CC2)cc(N(COC(=O)C(C)(C)C)S(=O)(=O)C(F)(F)F)c(C)c1C [Compound 369]	0	0		80		90	0	0		0	0	50	40	40		20	20	20	0	0
Cc1cc(C)c(N(C(=O)OC(C)C)S(=O)(=O)C(F)(F)F)cc1C1=NOC2CCCC12 (stereo not shown) [Compound 295]	0	30	50	70	0	10	0	0	20	70	0	80	40	70	0	30				
